Values after ≈ are worked out from the molar mass of the structure shown.
What was measured:
[1] = In vivo inhibition of LRRK2 in C57BL6 mouse assessed as reduction in Ser935 phosphorylation in brain at 45 mg/kg, po after 1 hr by Western blot analysis; assay type: functional; set-up: scale not given: the % may be the effect or the level left
[2] = target: Serine/threonine-protein kinase TAO3 (Homo sapiens) (UniProt Q9H2K8); assay: Inhibition of wild-type human partial length TAOK3 (M1 to T316 residues) expressed in mammalian expression system assessed as residual activity at 1 uM by Kinomescan method relative to control
[3] = target: Ribosomal protein S6 kinase alpha-5 (Homo sapiens) (UniProt O75582); assay: Inhibition of wild-type human partial length N-terminal RPS6KA5 kinase domain 1 expressed in bacterial expression system assessed as residual activity at 1 uM by Kinomescan method relative to control
[4] = target: Serine/threonine-protein kinase N1 (Homo sapiens) (UniProt Q16512); assay: Inhibition of wild-type human partial length PKN1 (E598 to C948 residues) expressed in bacterial expression system assessed as residual activity at 1 uM by Kinomescan method relative to control
[5] = target: Platelet-derived growth factor receptor beta (Homo sapiens) (UniProt P09619); assay: Inhibition of wild-type human partial length PDGFRB (V582 to Y1009 residues) expressed in bacterial expression system assessed as residual activity at 1 uM by Kinomescan method relative to control
[6] = target: Mitogen-activated protein kinase kinase kinase 20 (Homo sapiens) (UniProt Q9NYL2); assay: Inhibition of wild-type human partial length ZAK (M1 to L331 residues) expressed in bacterial expression system assessed as residual activity at 1 uM by Kinomescan method relative to control
[7] = target: Mitogen-activated protein kinase 7 (Homo sapiens) (UniProt Q13164); assay: Inhibition of wild-type human partial length ERK5 (M1 to A409 residues) expressed in bacterial expression system assessed as residual activity at 1 uM by Kinomescan method relative to control
[8] = target: Mitogen-activated protein kinase 11 (Homo sapiens) (UniProt Q15759); assay: Inhibition of wild-type human full length p38-beta (M1 to Q364 residues) expressed in bacterial expression system assessed as residual activity at 1 uM by Kinomescan method relative to control
[9] = target: Cyclin-dependent kinase 5/CDK5 activator 1 (Homo sapiens) (UniProt Q00535+Q15078); assay: Inhibition of wild-type human full length CDK5 (M1 to P292 residues)/p35 expressed in bacterial expression system assessed as residual activity at 1 uM by Kinomescan method relative to control
[10] = target: cGMP-dependent protein kinase 1 (Homo sapiens) (UniProt Q13976); assay: Inhibition of PKG1a (unknown origin) assessed as residual activity at 1 uM by Kinomescan method relative to control
[11] = target: Dual specificity testis-specific protein kinase 1 (Homo sapiens) (UniProt Q15569); assay: Inhibition of wild-type human full length TESK1 (R37 to S626 residues) expressed in bacterial expression system assessed as residual activity at 1 uM by Kinomescan method relative to control
[12] = target: cAMP-dependent protein kinase catalytic subunit gamma (Homo sapiens) (UniProt P22612); assay: Inhibition of PKAcg (unknown origin) assessed as residual activity at 1 uM by Kinomescan method relative to control
[13] = target: MAP kinase-interacting serine/threonine-protein kinase 1 (Homo sapiens) (UniProt Q9BUB5); assay: Inhibition of MNK1 (unknown origin) assessed as residual activity at 1 uM by Kinomescan method relative to control
[14] = target: Serine/threonine-protein kinase PAK 2 (Homo sapiens) (UniProt Q13177); assay: Inhibition of wild-type human partial length PAK2 (P151 to R525 residues) expressed in bacterial expression system assessed as residual activity at 1 uM by Kinomescan method relative to control
[15] = target: Tyrosine-protein kinase receptor UFO (Homo sapiens) (UniProt P30530); assay: Inhibition of wild-type human partial length AXL (R497 to Y821 residues) expressed in bacterial expression system assessed as residual activity at 1 uM by Kinomescan method relative to control
Chain of Tyrosine-protein kinase receptor UFO (Homo sapiens) (P30530 whole entry, the tested form may be a part): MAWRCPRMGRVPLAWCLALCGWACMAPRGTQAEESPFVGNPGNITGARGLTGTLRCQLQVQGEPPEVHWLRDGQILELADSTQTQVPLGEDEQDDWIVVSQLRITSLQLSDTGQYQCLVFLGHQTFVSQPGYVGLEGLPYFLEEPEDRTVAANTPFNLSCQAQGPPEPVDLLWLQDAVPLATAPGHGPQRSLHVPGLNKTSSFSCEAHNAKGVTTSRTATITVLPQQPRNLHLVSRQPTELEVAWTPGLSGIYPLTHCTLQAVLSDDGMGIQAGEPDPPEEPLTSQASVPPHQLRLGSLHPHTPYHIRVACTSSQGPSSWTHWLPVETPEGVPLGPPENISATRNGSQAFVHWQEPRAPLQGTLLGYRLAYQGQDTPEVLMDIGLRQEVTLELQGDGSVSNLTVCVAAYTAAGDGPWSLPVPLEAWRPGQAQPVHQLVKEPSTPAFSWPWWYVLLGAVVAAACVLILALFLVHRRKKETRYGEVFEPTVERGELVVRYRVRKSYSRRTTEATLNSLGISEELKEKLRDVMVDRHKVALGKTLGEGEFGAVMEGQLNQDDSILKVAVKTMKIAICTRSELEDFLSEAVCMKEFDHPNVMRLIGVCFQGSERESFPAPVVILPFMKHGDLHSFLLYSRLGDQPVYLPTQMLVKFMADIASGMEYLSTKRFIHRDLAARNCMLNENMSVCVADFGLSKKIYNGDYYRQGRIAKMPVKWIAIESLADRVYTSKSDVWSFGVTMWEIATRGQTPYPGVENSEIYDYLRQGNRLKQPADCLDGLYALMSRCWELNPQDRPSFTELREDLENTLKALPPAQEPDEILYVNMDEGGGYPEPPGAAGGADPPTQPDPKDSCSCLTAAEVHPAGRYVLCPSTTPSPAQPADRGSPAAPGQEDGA

[16] = target: RAC-gamma serine/threonine-protein kinase (Homo sapiens) (UniProt Q9Y243); assay: Inhibition of wild-type human partial length AKT3 expressed in bacterial expression system assessed as residual activity at 1 uM by Kinomescan method relative to control
[17] = target: Serine/threonine-protein kinase PLK3 (Homo sapiens) (UniProt Q9H4B4); assay: Inhibition of wild-type human partial length PLK3 (A42 to L334 residues) expressed in mammalian expression system assessed as residual activity at 1 uM by Kinomescan method relative to control
[18] = target: Serine/threonine-protein kinase 24 (Homo sapiens) (UniProt Q9Y6E0); assay: Inhibition of wild-type human partial length MST3 (A30 to S311 residues) expressed in bacterial expression system assessed as residual activity at 1 uM by Kinomescan method relative to control
[19] = target: Rho-associated protein kinase 1 (Homo sapiens) (UniProt Q13464); assay: Inhibition of wild-type human partial length ROCK1 (M1 to R415 residues) expressed in mammalian expression system assessed as residual activity at 1 uM by Kinomescan method relative to control
[20] = Solubility of the compound in FaSSIF measured after 4 hrs; assay type: physicochemical
[21] = target: Leucine-rich repeat serine/threonine-protein kinase 2 (Homo sapiens, UniProt Q5S007); assay: Inhibition of wild-type human partial length LRRK2 (H970 to E2527 residues) expressed in mammalian expression system assessed as residual activity at 1 uM by Kinomescan method relative to control
Chain of Leucine-rich repeat serine/threonine-protein kinase 2 (Q5S007 whole entry, the tested form may be a part): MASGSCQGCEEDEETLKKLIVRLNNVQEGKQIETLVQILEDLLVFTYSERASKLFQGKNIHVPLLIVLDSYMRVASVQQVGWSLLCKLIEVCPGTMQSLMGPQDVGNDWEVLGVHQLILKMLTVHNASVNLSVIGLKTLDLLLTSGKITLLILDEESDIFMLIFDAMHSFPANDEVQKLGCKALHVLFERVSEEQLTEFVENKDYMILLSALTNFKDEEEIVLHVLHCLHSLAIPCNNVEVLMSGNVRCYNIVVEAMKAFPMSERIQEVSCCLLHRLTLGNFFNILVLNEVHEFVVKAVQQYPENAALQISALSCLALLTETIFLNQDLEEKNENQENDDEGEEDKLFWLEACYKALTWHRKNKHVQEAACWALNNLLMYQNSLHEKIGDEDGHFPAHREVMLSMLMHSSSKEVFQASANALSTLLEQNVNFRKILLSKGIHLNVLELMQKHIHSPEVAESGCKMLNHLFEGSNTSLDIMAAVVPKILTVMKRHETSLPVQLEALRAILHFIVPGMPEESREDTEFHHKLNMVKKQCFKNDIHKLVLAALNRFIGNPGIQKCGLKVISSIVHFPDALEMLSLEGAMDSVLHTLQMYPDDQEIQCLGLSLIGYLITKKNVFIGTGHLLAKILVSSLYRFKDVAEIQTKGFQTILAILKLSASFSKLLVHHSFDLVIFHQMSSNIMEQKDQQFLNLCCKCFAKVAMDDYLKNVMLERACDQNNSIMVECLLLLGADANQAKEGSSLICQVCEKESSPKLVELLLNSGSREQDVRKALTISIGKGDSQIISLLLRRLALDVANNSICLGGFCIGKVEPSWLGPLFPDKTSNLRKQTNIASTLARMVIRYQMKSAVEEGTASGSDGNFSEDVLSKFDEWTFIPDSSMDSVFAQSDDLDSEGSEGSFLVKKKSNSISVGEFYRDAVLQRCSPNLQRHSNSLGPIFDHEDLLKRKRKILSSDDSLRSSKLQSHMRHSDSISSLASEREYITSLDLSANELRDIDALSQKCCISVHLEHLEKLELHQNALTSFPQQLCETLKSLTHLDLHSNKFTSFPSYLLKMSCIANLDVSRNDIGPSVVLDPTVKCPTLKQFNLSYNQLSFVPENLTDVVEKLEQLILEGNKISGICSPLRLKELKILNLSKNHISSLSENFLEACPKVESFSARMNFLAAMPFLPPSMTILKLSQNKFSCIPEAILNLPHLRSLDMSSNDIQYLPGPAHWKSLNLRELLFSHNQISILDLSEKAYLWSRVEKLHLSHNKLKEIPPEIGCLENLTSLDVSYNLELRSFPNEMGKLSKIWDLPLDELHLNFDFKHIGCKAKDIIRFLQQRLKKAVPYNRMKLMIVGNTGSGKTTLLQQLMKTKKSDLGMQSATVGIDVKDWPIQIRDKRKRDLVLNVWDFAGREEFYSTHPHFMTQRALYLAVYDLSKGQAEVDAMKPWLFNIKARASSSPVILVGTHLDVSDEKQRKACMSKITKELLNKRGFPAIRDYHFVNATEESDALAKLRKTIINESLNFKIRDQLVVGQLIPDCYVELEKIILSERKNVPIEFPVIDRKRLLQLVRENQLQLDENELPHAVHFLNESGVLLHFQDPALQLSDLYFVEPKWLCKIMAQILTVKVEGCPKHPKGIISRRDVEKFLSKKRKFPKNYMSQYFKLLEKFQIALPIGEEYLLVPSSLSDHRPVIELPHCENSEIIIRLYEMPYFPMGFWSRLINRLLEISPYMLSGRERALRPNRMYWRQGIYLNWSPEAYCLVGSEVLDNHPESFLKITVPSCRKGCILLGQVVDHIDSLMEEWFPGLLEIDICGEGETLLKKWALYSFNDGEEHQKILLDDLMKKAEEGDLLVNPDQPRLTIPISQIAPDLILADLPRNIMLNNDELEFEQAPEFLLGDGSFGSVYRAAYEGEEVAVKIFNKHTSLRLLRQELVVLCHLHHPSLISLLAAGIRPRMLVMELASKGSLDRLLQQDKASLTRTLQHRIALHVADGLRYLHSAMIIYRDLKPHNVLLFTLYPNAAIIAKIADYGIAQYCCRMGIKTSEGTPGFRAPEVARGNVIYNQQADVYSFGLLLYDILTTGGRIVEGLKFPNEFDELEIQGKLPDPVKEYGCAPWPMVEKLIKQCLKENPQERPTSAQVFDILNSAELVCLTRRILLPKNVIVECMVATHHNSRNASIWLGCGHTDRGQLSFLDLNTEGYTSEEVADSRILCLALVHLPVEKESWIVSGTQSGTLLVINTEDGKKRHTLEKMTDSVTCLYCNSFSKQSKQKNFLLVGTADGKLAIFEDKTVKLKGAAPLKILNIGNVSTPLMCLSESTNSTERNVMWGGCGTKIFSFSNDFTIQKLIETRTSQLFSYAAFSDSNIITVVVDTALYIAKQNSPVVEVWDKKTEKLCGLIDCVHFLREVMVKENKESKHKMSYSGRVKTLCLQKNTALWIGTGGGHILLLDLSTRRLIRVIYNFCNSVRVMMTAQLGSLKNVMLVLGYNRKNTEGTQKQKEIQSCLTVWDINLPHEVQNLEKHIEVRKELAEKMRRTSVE

[22] = target: Testis-specific serine/threonine-protein kinase 6 (Homo sapiens) (UniProt Q9BXA6); assay: Inhibition of SSTK (unknown origin) assessed as residual activity at 1 uM by Kinomescan method relative to control
[23] = target: Glycogen synthase kinase-3 alpha (Homo sapiens) (UniProt P49840); assay: Inhibition of wild-type human full length GSK3A (M1 to S483 residues) expressed in bacterial expression system assessed as residual activity at 1 uM by Kinomescan method relative to control
Chain of Glycogen synthase kinase-3 alpha (Homo sapiens) (P49840 2-483 limits assumed): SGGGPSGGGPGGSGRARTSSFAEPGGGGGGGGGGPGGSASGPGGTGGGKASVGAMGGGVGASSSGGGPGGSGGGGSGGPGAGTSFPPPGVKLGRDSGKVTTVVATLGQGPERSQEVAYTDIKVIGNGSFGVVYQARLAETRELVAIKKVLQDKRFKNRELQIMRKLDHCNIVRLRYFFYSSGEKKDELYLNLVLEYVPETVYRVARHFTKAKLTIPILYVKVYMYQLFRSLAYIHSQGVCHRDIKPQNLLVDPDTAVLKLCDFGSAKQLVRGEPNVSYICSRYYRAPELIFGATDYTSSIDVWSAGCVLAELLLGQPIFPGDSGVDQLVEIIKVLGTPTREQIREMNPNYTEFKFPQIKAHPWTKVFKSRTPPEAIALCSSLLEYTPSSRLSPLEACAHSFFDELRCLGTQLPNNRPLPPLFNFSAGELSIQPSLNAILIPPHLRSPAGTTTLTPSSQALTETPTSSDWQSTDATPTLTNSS

[24] = target: Serine/threonine-protein kinase Nek9 (Homo sapiens) (UniProt Q8TD19); assay: Inhibition of wild-type human partial length NEK9 (P32 to R328 residues) expressed in bacterial expression system assessed as residual activity at 1 uM by Kinomescan method relative to control
[25] = target: Tyrosine-protein kinase BTK (Homo sapiens) (UniProt Q06187); assay: Inhibition of wild-type human full length BTK (M1 to S659 residues) expressed in mammalian expression system assessed as residual activity at 1 uM by Kinomescan method relative to control
[26] = target: Homeodomain-interacting protein kinase 2 (Homo sapiens) (UniProt Q9H2X6); assay: Inhibition of wild-type human partial length HIPK2 (M153 to S564 residues) expressed in mammalian expression system assessed as residual activity at 1 uM by Kinomescan method relative to control
Chain of Homeodomain-interacting protein kinase 2 (Homo sapiens) (Q9H2X6 whole entry, looked up, the tested form may be a part): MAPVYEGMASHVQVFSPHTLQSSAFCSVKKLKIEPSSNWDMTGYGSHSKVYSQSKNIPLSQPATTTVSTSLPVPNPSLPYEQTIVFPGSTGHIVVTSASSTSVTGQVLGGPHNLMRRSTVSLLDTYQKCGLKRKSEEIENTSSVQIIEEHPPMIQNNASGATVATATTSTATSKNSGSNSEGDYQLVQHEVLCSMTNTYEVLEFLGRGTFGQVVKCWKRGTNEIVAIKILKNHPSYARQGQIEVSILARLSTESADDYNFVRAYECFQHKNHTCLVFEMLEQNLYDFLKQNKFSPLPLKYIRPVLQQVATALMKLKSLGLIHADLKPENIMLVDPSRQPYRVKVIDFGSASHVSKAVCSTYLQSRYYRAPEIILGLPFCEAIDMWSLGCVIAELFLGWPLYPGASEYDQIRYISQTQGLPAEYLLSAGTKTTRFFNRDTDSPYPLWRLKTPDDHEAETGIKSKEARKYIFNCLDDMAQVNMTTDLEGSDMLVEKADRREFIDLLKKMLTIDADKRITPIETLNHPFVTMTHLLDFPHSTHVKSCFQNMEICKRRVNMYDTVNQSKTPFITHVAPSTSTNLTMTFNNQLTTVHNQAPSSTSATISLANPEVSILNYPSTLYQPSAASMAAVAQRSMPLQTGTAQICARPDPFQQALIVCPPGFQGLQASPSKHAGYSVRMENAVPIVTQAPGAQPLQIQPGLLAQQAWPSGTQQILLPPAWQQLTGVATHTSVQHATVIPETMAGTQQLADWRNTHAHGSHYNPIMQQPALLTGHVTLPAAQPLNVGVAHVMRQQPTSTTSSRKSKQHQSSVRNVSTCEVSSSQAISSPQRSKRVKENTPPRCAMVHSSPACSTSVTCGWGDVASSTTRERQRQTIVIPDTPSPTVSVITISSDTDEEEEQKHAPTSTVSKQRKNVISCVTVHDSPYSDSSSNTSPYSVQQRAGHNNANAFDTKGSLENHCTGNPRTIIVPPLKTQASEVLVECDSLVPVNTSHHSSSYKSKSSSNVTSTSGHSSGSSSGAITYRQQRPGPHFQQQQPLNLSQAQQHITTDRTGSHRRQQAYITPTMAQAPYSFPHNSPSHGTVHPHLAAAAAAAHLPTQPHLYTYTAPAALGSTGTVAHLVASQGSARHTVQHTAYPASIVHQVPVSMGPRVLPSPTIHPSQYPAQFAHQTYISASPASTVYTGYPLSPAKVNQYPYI

[27] = target: Protein kinase C delta type (Homo sapiens) (UniProt Q05655); assay: Inhibition of PKCdelta (unknown origin) assessed as residual activity at 1 uM by Kinomescan method relative to control

Compound: CCOc1nc(Nc2ccc(C(=O)N3CCOCC3)cc2OC)nc2[nH]ccc12
- Activity [1]: 50%
- Activity [2]: 97.8%
- Activity [3]: 97.6%
- Activity [4]: 94.8%
- Activity [5]: 90.9%
- Activity [6]: 97.2%
- Activity [7]: 99.1%
- Activity [8]: 101%
- Activity [9]: 93.1%
- Activity [10]: 92.5%
- Activity [11]: 104%
- Activity [12]: 110%
- Activity [13]: 98.7%
- Activity [14]: 95.3%
- Activity [15]: 93.9%
- Activity [16]: 98.8%
- Activity [17]: 88.1%
- Activity [18]: 97.4%
- Activity [19]: 94.2%
- solubility at 4 h [20]: 0.127 mg/mL (≈ 320 µM)
- Activity [21]: 0.91%
- Activity [22]: 83.3%
- Activity [23]: 87.8%
- Activity [24]: 100%
- Activity [25]: 101%
- Activity [26]: 100%
- Activity [27]: 99.8%

— ChEMBL document CHEMBL4715821, “Discovery of 4-ethoxy-7H-pyrrolo[2,3-d]pyrimidin-2-amines as potent, selective and orally bioavailable LRRK2 inhibitors” (Bioorg Med Chem Lett, 2018)
